Results taken from patent US4267112A, “Antibiotic U-58,431” (The Upjohn Company, priority 1979, dated 1981).

How the values were obtained:
[1] = solubilities; assay type: physicochemical
[2] = tested on: Hormodendrum compactum UC 1222; assay: antifungal agar dilution test; assay type: cell-based; parameters: key: -: inhibition; +: no inhibition; conditions: 28° C., 72 hours
Procedure: (§1) The antifungal spectrum for antibiotic U-58,431 was conducted on a standard agar […] assay. The results are as follows: An agar dilution method is used. 100 mg amounts of material is solubilized in 1 ml of dimethylformamide (DMF) and diluted to 10 ml with mycophil Broth (BBL labs.) unless completely soluble in water. The material to be tested is incorporated in melted (48° C.) mycophil Agar at concentrations of 1000, 100, 10 and 1 mcg/ml. Fifteen ml of agar is pipetted into a petri dish. After solidification, the surface is streaked with agar spore suspensions of human fungal pathogens. The suspensions are made by adding 10 ml sterile distilled water to agar […] of the test organisms. The slant surface is scraped with a sterile inoculating needle, and 0.5 ml of this suspension is added to 9.5 ml melted (48° C.) mycophil Agar in a stamp streak well. (Each stamp streak base has 6 wells.) The streaked plates are incubated at 28° C. for 72 hours at which time results are recorded. Readings are by visual observation.

[3] = tested on: Cryptococcus neoformans UC 1139; assay: antifungal agar dilution test; assay type: cell-based; parameters: key: -: inhibition; +: no inhibition; conditions: 28° C., 72 hours
Procedure: as §1

[4] = tested on: Trichophyton mentagrophytes UC 4797; assay: antifungal agar dilution test; assay type: cell-based; parameters: key: -: inhibition; +: no inhibition; conditions: 28° C., 72 hours
Procedure: as §1

[5] = tested on: Cryptococcus neoformans UC 4869; assay: antifungal agar dilution test; assay type: cell-based; parameters: key: -: inhibition; +: no inhibition; conditions: 28° C., 72 hours
Procedure: as §1

[6] = tested on: Nocardia asteroides UC 2052; assay: antifungal agar dilution test; assay type: cell-based; parameters: key: -: inhibition; +: no inhibition; conditions: 28° C., 72 hours
Procedure: as §1

[7] = tested on: Trichophyton violaceum UC 1459; assay: antifungal agar dilution test; assay type: cell-based; parameters: key: -: inhibition; +: no inhibition; conditions: 28° C., 72 hours
Procedure: as §1

[8] = tested on: Geotrichum sp. UC 1207; assay: antifungal agar dilution test; assay type: cell-based; parameters: key: -: inhibition; +: no inhibition; conditions: 28° C., 72 hours
Procedure: as §1

[9] = tested on: Sporotrichum schenckii UC 1364; assay: antifungal agar dilution test; assay type: cell-based; parameters: key: -: inhibition; +: no inhibition; conditions: 28° C., 72 hours
Procedure: as §1

[10] = tested on: Trichophyton mentagrophytes UC 4860; assay: antifungal agar dilution test; assay type: cell-based; parameters: key: -: inhibition; +: no inhibition; conditions: 28° C., 72 hours
Procedure: as §1

[11] = tested on: Blastomyces dermatidis UC 1466; assay: antifungal agar dilution test; assay type: cell-based; parameters: key: -: inhibition; +: no inhibition; conditions: 28° C., 72 hours
Procedure: as §1

[12] = tested on: Candida albicans UC 7163; assay: antifungal agar dilution test; assay type: cell-based; parameters: key: -: inhibition; +: no inhibition; conditions: 28° C., 72 hours
Procedure: as §1

[13] = tested on: Candida albicans UC 7164; assay: antifungal agar dilution test; assay type: cell-based; parameters: key: -: inhibition; +: no inhibition; conditions: 28° C., 72 hours
Procedure: as §1

[14] = tested on: Trichophyton rubrum UC 1458; assay: antifungal agar dilution test; assay type: cell-based; parameters: key: -: inhibition; +: no inhibition; conditions: 28° C., 72 hours
Procedure: as §1

[15] = tested on: Trichophyton asteroides UC 4775; assay: antifungal agar dilution test; assay type: cell-based; parameters: key: -: inhibition; +: no inhibition; conditions: 28° C., 72 hours
Procedure: as §1

[16] = tested on: various Gram-positive and Gram-negative bacteria; assay: antibacterial activity (general statement); assay type: cell-based
Procedure: (§2) The antibacterial assay is a standard microbiological broth assay. The MIC is determined by standard methods using two-fold dilutions of the antibiotic in Brian Heart Infusion Broth (Difco Lab., Detroit, Michigan). The inocula are overnight cultures of the test organisms, diluted so that the final population contains approximately 10^5 cells/ml. The tubes are incubated at 28° to 37° C. for 42 hours. The lowest antibiotic concentration which allows no growth=MIC or minimum inhibitory concentration.

[17] = tested on: Proteus vulgaris UC 93; assay: antibacterial broth MIC assay; assay type: cell-based; conditions: Brain Heart Infusion Broth, 42 hours
Procedure: as §2

[18] = tested on: Streptococcus faecalis UC 694; assay: antibacterial broth MIC assay; assay type: cell-based; conditions: Brain Heart Infusion Broth, 42 hours
Procedure: as §2

[19] = tested on: Staphylococcus aureus UC 570; assay: antibacterial broth MIC assay; assay type: cell-based; conditions: Brain Heart Infusion Broth, 42 hours
Procedure: as §2

[20] = tested on: Staphylococcus aureus UC 746; assay: antibacterial broth MIC assay; assay type: cell-based; conditions: Brain Heart Infusion Broth, 42 hours
Procedure: as §2

[21] = tested on: Diplococcus pneumoniae UC 41; assay: antibacterial broth MIC assay; assay type: cell-based; conditions: Brain Heart Infusion Broth, 42 hours
Procedure: as §2

[22] = tested on: Salmonella schottmuelleri UC 126; assay: antibacterial broth MIC assay; assay type: cell-based; conditions: Brain Heart Infusion Broth, 42 hours
Procedure: as §2

[23] = tested on: Staphylococcus aureus 284 UC 76; assay: antibacterial broth MIC assay; assay type: cell-based; conditions: Brain Heart Infusion Broth, 42 hours
Procedure: as §2

[24] = tested on: Pseudomonas aeruginosa UC 95; assay: antibacterial broth MIC assay; assay type: cell-based; conditions: Brain Heart Infusion Broth, 42 hours
Procedure: as §2

[25] = tested on: Klebsiella pneumoniae UC 58; assay: antibacterial broth MIC assay; assay type: cell-based; conditions: Brain Heart Infusion Broth, 42 hours
Procedure: as §2

[26] = tested on: Escherichia coli UC 45; assay: antibacterial broth MIC assay; assay type: cell-based; conditions: Brain Heart Infusion Broth, 42 hours
Procedure: as §2

[27] = tested on: Streptococcus hemolyticus UC 152; assay: antibacterial broth MIC assay; assay type: cell-based; conditions: Brain Heart Infusion Broth, 42 hours
Procedure: as §2

[28] = tested on: fungi; assay: antifungal activity (general statement); assay type: cell-based
Procedure: An agar dilution method is used. 100 mg amounts of material is solubilized in 1 ml of dimethylformamide (DMF) and diluted to 10 ml with mycophil Broth (BBL labs.) unless completely soluble in water. The material to be tested is incorporated in melted (48° C.) mycophil Agar at concentrations of 1000, 100, 10 and 1 mcg/ml. Fifteen ml of agar is pipetted into a petri dish. After solidification, the surface is streaked with agar spore suspensions of human fungal pathogens. The suspensions are made by adding 10 ml sterile distilled water to agar slants of the test organisms. The slant surface is scraped with a sterile inoculating needle, and 0.5 ml of this suspension is added to 9.5 ml melted (48° C.) mycophil Agar in a stamp streak well. (Each stamp streak base has 6 wells.)
The streaked plates are incubated at 28° C. for 72 hours at which time results are recorded. Readings are by visual observation.

[29] = tested on: P. vulgaris; assay: activity against P. vulgaris (general statement); assay type: cell-based
Procedure: as §2

C[C@H]1O[C@@H]2C3=C(C(=O)C(=N)C(C(N)=O)=C3O)[C@@]1(O)C[C@H]2O [U-58,431]
slightly soluble: solubility ([1]; chloroform) | solubility ([1]; cold methylene chloride)
1.0 µg/mL: Minimum Inhibitory Concentration [21]
active: activity against Gram-positive and Gram-negative bacteria [16] | activity against fungi [28] | activity against P. vulgaris [29]
125 µg/mL: Minimum Inhibitory Concentration [19] | Minimum Inhibitory Concentration [20] | Minimum Inhibitory Concentration [23] | Minimum Inhibitory Concentration [24] | Minimum Inhibitory Concentration [25] | Minimum Inhibitory Concentration [27]
62.5 µg/mL: Minimum Inhibitory Concentration [22]
soluble: solubility ([1]; ethanol) | solubility ([1]; methanol) | solubility ([1]; water)
-: inhibition at indicated concentration ([4]; 1000 mcg/ml) | inhibition at indicated concentration ([6]; 1000 mcg/ml) | inhibition at indicated concentration ([14]; 1000 mcg/ml)
+: inhibition at indicated concentration ([2]; 1 mcg/ml) | inhibition at indicated concentration ([2]; 10 mcg/ml) | inhibition at indicated concentration ([2]; 100 mcg/ml) | inhibition at indicated concentration ([2]; 1000 mcg/ml) | inhibition at indicated concentration ([3]; 1 mcg/ml) | inhibition at indicated concentration ([3]; 10 mcg/ml) | inhibition at indicated concentration ([3]; 100 mcg/ml) | inhibition at indicated concentration ([3]; 1000 mcg/ml) | inhibition at indicated concentration ([4]; 1 mcg/ml) | inhibition at indicated concentration ([4]; 10 mcg/ml) | inhibition at indicated concentration ([4]; 100 mcg/ml) | inhibition at indicated concentration ([5]; 1 mcg/ml) | inhibition at indicated concentration ([5]; 10 mcg/ml) | inhibition at indicated concentration ([5]; 100 mcg/ml) | inhibition at indicated concentration ([5]; 1000 mcg/ml) | inhibition at indicated concentration ([6]; 1 mcg/ml) | inhibition at indicated concentration ([6]; 10 mcg/ml) | inhibition at indicated concentration ([6]; 100 mcg/ml) | inhibition at indicated concentration ([7]; 1 mcg/ml) | inhibition at indicated concentration ([7]; 10 mcg/ml) | inhibition at indicated concentration ([7]; 100 mcg/ml) | inhibition at indicated concentration ([7]; 1000 mcg/ml) | inhibition at indicated concentration ([8]; 1 mcg/ml) | inhibition at indicated concentration ([8]; 10 mcg/ml) | inhibition at indicated concentration ([8]; 100 mcg/ml) | inhibition at indicated concentration ([8]; 1000 mcg/ml) | inhibition at indicated concentration ([9]; 1 mcg/ml) | inhibition at indicated concentration ([9]; 10 mcg/ml) | inhibition at indicated concentration ([9]; 100 mcg/ml) | inhibition at indicated concentration ([9]; 1000 mcg/ml) | inhibition at indicated concentration ([10]; 1 mcg/ml) | inhibition at indicated concentration ([10]; 10 mcg/ml) | inhibition at indicated concentration ([10]; 100 mcg/ml) | inhibition at indicated concentration ([10]; 1000 mcg/ml) | inhibition at indicated concentration ([11]; 1 mcg/ml) | inhibition at indicated concentration ([11]; 10 mcg/ml) | inhibition at indicated concentration ([11]; 100 mcg/ml) | inhibition at indicated concentration ([11]; 1000 mcg/ml) | inhibition at indicated concentration ([12]; 1 mcg/ml) | inhibition at indicated concentration ([12]; 10 mcg/ml) | inhibition at indicated concentration ([12]; 100 mcg/ml) | inhibition at indicated concentration ([12]; 1000 mcg/ml) | inhibition at indicated concentration ([13]; 1 mcg/ml) | inhibition at indicated concentration ([13]; 10 mcg/ml) | inhibition at indicated concentration ([13]; 100 mcg/ml) | inhibition at indicated concentration ([13]; 1000 mcg/ml) | inhibition at indicated concentration ([14]; 1 mcg/ml) | inhibition at indicated concentration ([14]; 10 mcg/ml) | inhibition at indicated concentration ([14]; 100 mcg/ml) | inhibition at indicated concentration ([15]; 1 mcg/ml) | inhibition at indicated concentration ([15]; 10 mcg/ml) | inhibition at indicated concentration ([15]; 100 mcg/ml) | inhibition at indicated concentration ([15]; 1000 mcg/ml)
250 µg/mL: Minimum Inhibitory Concentration [17] | Minimum Inhibitory Concentration [18] | Minimum Inhibitory Concentration [26]
